Measured values from ChEMBL document CHEMBL3885861, “Open TG-GATES”.

Species: Rattus norvegicus
Experiment: Open TG-GATES - Regimen: Daily Repeat
Type: toxicity, organism-based, Sprague-Dawley
Parameters: regimen Daily Repeat, gender Male, age 6 weeks
Conditions: in vivo, po, 20 mg/kg, route gavage, dose level Low; for APTT / Bas / Eos / Fbg / Hb / Ht / Lym / MCH / MCHC / MCV / Mono / Neu / PT / Plat / RBC / Ret / WBC: tissue Blood; for KIDNEY_L / KIDNEY_R / KIDNEY_TOTAL: tissue Kidney; for LIVER: tissue Liver; for A/G / ALP / ALT / AST / BUN / CRE / Ca / Cl / DBIL / GLC / IP / K / LDH / Na / PL / RALB / TBIL / TC / TG / TP / gamma-GTP: tissue Plasma

For CCc1oc2ccccc2c1C(=O)c1cc(Br)c(O)c(Br)c1 [BENZBROMARONE], the TERMINAL_BW (72 h, time 3 day) was 239.2 g, the APTT (72 h, time 3 day) was 16.2 s and the Bas (72 h, time 3 day) was 0%. For the same molecule, the Eos (72 h, time 3 day) was 1%, the Fbg (72 h, time 3 day) was 233.6 mg/dL and the Hb (72 h, time 3 day) was 13.8 g/dL. For the same molecule, the Ht (72 h, time 3 day) was 41%, the Lym (72 h, time 3 day) was 78.8% and the MCH (72 h, time 3 day) was 22.4 pg. For the same molecule, the MCHC (72 h, time 3 day) was 33.7%, the MCV (72 h, time 3 day) was 66.3 fL and the Mono (72 h, time 3 day) was 7%. It also gave a Neu (72 h, time 3 day) of 13.2%, a PT (72 h, time 3 day) of 11.8 s and a Plat (72 h, time 3 day) of 112.4 x10_4/uL. For the same molecule, the RBC (72 h, time 3 day) was 619.6 x10_4/ul, the Ret (72 h, time 3 day) was 7.4% and the WBC (72 h, time 3 day) was 116.5 x10_2/uL. It also gave a KIDNEY_L (72 h, time 3 day) of 1.1 g, a KIDNEY_R (72 h, time 3 day) of 1.1 g and a KIDNEY_TOTAL (72 h, time 3 day) of 2.2 g. It also gave an LIVER (72 h, time 3 day) of 12.8 g, an A/G (72 h, time 3 day) of 2.1 and an ALP (72 h, time 3 day) of 818.8 IU/L. It also gave an ALT (72 h, time 3 day) of 31.2 IU/L, an AST (72 h, time 3 day) of 59.8 IU/L and a BUN (72 h, time 3 day) of 18.6 mg/dL. The CRE (72 h, time 3 day) was 0.6 mg/dL, the Ca (72 h, time 3 day) was 10.4 mg/dL and the Cl (72 h, time 3 day) was 105 meq/L. For the same molecule, the DBIL (72 h, time 3 day) was 0.008 mg/dL, the GLC (72 h, time 3 day) was 189.2 mg/dL and the IP (72 h, time 3 day) was 7.7 mg/dL. It also gave a K (72 h, time 3 day) of 4.9 meq/L, an LDH (72 h, time 3 day) of 90.2 IU/L and a Na (72 h, time 3 day) of 139.5 meq/L. It also gave a PL (72 h, time 3 day) of 158.8 mg/dL, an RALB (72 h, time 3 day) of 4 g/dL and a TBIL (72 h, time 3 day) of 0.3 mg/dL. The TC (72 h, time 3 day) was 84.2 mg/dL, the TG (72 h, time 3 day) was 114.2 mg/dL and the TP (72 h, time 3 day) was 6 g/dL. It also gave a gamma-GTP (72 h, time 3 day) of 0.8 IU/L, a TERMINAL_BW ([…], time 7 day) of 269 g and a TERMINAL_BW ([…], time 14 day) of 309.9 g. It also gave a TERMINAL_BW ([…], time 28 day) of 378.9 g, an APTT ([…], time 7 day) of 16.8 s and a Bas ([…], time 7 day) of 0%. For the same molecule, the Eos ([…], time 7 day) was 1%, the Fbg ([…], time 7 day) was 244.4 mg/dL and the Hb ([…], time 7 day) was 14.2 g/dL. For the same molecule, the Ht ([…], time 7 day) was 42%, the Lym ([…], time 7 day) was 79.8% and the MCH ([…], time 7 day) was 21.2 pg. It also gave an MCHC ([…], time 7 day) of 33.9%, an MCV ([…], time 7 day) of 62.6 fL and a Mono ([…], time 7 day) of 5.8%. The Neu ([…], time 7 day) was 13.4%, the PT ([…], time 7 day) was 11.9 s and the Plat ([…], time 7 day) was 113.1 x10_4/uL. For the same molecule, the RBC ([…], time 7 day) was 670.8 x10_4/ul, the Ret ([…], time 7 day) was 5.9% and the WBC ([…], time 7 day) was 102 x10_2/uL. The APTT ([…], time 14 day) was 16.5 s, the Bas ([…], time 14 day) was 0% and the Eos ([…], time 14 day) was 1%. It also gave a Fbg ([…], time 14 day) of 228.8 mg/dL, a Hb ([…], time 14 day) of 14.4 g/dL and a Ht ([…], time 14 day) of 43.4%. For the same molecule, the Lym ([…], time 14 day) was 81.4%, the MCH ([…], time 14 day) was 20.8 pg and the MCHC ([…], time 14 day) was 33.3%. It also gave an MCV ([…], time 14 day) of 62.5 fL, a Mono ([…], time 14 day) of 6.2% and a Neu ([…], time 14 day) of 11.2%. For the same molecule, the PT ([…], time 14 day) was 11.7 s, the Plat ([…], time 14 day) was 104.8 x10_4/uL and the RBC ([…], time 14 day) was 694.6 x10_4/ul. For the same molecule, the Ret ([…], time 14 day) was 4.4%, the WBC ([…], time 14 day) was 128.4 x10_2/uL and the APTT ([…], time 28 day) was 16.9 s. The Bas ([…], time 28 day) was 0%, the Eos ([…], time 28 day) was 1.4% and the Fbg ([…], time 28 day) was 223.4 mg/dL. For the same molecule, the Hb ([…], time 28 day) was 15.4 g/dL, the Ht ([…], time 28 day) was 45.8% and the Lym ([…], time 28 day) was 85.4%. It also gave an MCH ([…], time 28 day) of 19.3 pg, an MCHC ([…], time 28 day) of 33.6% and an MCV ([…], time 28 day) of 57.6 fL. For the same molecule, the Mono ([…], time 28 day) was 4.6%, the Neu ([…], time 28 day) was 8.6% and the PT ([…], time 28 day) was 12.1 s. It also gave a Plat ([…], time 28 day) of 101.2 x10_4/uL, an RBC ([…], time 28 day) of 795.8 x10_4/ul and a Ret ([…], time 28 day) of 2.8%. It also gave a WBC ([…], time 28 day) of 139.2 x10_2/uL, a KIDNEY_L ([…], time 7 day) of 1.2 g and a KIDNEY_R ([…], time 7 day) of 1.2 g. It also gave a KIDNEY_TOTAL ([…], time 7 day) of 2.4 g, a KIDNEY_L ([…], time 14 day) of 1.2 g and a KIDNEY_R ([…], time 14 day) of 1.3 g. The KIDNEY_TOTAL ([…], time 14 day) was 2.5 g, the KIDNEY_L ([…], time 28 day) was 1.5 g and the KIDNEY_R ([…], time 28 day) was 1.5 g. For the same molecule, the KIDNEY_TOTAL ([…], time 28 day) was 2.9 g, the LIVER ([…], time 7 day) was 14.3 g and the LIVER ([…], time 14 day) was 15.3 g. The LIVER ([…], time 28 day) was 17.3 g, the A/G ([…], time 7 day) was 1.9 and the ALP ([…], time 7 day) was 819.4 IU/L. For the same molecule, the ALT ([…], time 7 day) was 34.6 IU/L, the AST ([…], time 7 day) was 61.8 IU/L and the BUN ([…], time 7 day) was 20 mg/dL. For the same molecule, the CRE ([…], time 7 day) was 0.6 mg/dL, the Ca ([…], time 7 day) was 10.4 mg/dL and the Cl ([…], time 7 day) was 107.9 meq/L. The DBIL ([…], time 7 day) was 0.008 mg/dL, the GLC ([…], time 7 day) was 187.8 mg/dL and the IP ([…], time 7 day) was 7.9 mg/dL. It also gave a K ([…], time 7 day) of 4.9 meq/L, an LDH ([…], time 7 day) of 92 IU/L and a Na ([…], time 7 day) of 138.5 meq/L. For the same molecule, the PL ([…], time 7 day) was 163.8 mg/dL, the RALB ([…], time 7 day) was 4 g/dL and the TBIL ([…], time 7 day) was 0.3 mg/dL. It also gave a TC ([…], time 7 day) of 82 mg/dL, a TG ([…], time 7 day) of 139.6 mg/dL and a TP ([…], time 7 day) of 6.2 g/dL. For the same molecule, the gamma-GTP ([…], time 7 day) was 1 IU/L, the A/G ([…], time 14 day) was 1.8 and the ALP ([…], time 14 day) was 708.6 IU/L. The ALT ([…], time 14 day) was 29.4 IU/L, the AST ([…], time 14 day) was 57.2 IU/L and the BUN ([…], time 14 day) was 19.6 mg/dL. The CRE ([…], time 14 day) was 0.6 mg/dL, the Ca ([…], time 14 day) was 10.4 mg/dL and the Cl ([…], time 14 day) was 107.5 meq/L. It also gave a DBIL ([…], time 14 day) of 0.002 mg/dL, a GLC ([…], time 14 day) of 191.8 mg/dL and an IP ([…], time 14 day) of 7.2 mg/dL. The K ([…], time 14 day) was 4.8 meq/L, the LDH ([…], time 14 day) was 88 IU/L and the Na ([…], time 14 day) was 140.3 meq/L. For the same molecule, the PL ([…], time 14 day) was 168.2 mg/dL, the RALB ([…], time 14 day) was 4.1 g/dL and the TBIL ([…], time 14 day) was 0.3 mg/dL. It also gave a TC ([…], time 14 day) of 86 mg/dL, a TG ([…], time 14 day) of 139.4 mg/dL and a TP ([…], time 14 day) of 6.3 g/dL. For the same molecule, the gamma-GTP ([…], time 14 day) was 2 IU/L, the A/G ([…], time 28 day) was 2 and the ALP ([…], time 28 day) was 589.8 IU/L. The ALT ([…], time 28 day) was 30.6 IU/L, the AST ([…], time 28 day) was 57.4 IU/L and the BUN ([…], time 28 day) was 20.6 mg/dL. For the same molecule, the CRE ([…], time 28 day) was 0.5 mg/dL, the Ca ([…], time 28 day) was 9.9 mg/dL and the Cl ([…], time 28 day) was 107.3 meq/L. For the same molecule, the DBIL ([…], time 28 day) was 0.008 mg/dL, the GLC ([…], time 28 day) was 192 mg/dL and the IP ([…], time 28 day) was 6.6 mg/dL. It also gave a K ([…], time 28 day) of 4.4 meq/L, an LDH ([…], time 28 day) of 92.2 IU/L and a Na ([…], time 28 day) of 140.6 meq/L. For the same molecule, the PL ([…], time 28 day) was 154.4 mg/dL, the RALB ([…], time 28 day) was 4.2 g/dL and the TBIL ([…], time 28 day) was 0.3 mg/dL. It also gave a TC ([…], time 28 day) of 75.6 mg/dL, a TG ([…], time 28 day) of 140 mg/dL and a TP ([…], time 28 day) of 6.4 g/dL. It also gave a gamma-GTP ([…], time 28 day) of 1.8 IU/L.
